These are literature values, as cited in US20140243428A1, “SELF HEALING HYDROGELS” (The Regents of the University of California, priority 2013, published 2014).

As usually defined, the pKa is the negative logarithm of the acid dissociation constant.

The structures appear in SMILES notation.

Turning to `NCCCCCC(=O)O` [6-aminocaproic acid], the pKa is listed as 4.4.
